Earlier results as cited in patent US11116769B2, “Tadalafil free base-containing film dosage form containing polyethylene glycol-based polymer and/or vinyl pyrrolidone-based polymer as dispersion stabilizer” (CTC BIO, INC., priority 2013, dated 2021).

solubility in organic solvents (some organic solvents such as methanol, ethanol and acetone): slightly soluble | solubility in water (water): practically insoluble | water solubility (water at 25° C., from U.S. Pat. No. 6,841,167): about 2 μg per 1 milliliter (mL)
SMILES: CN1CC(=O)N2[C@H](c3ccc4c(c3)OCO4)c3[nH]c4ccccc4c3C[C@@H]2C1=O [Tadalafil, (6R-trans)-6-(1,3-benzodioxol-5-yl)-2,3,6,7,12,12a-hexahydro-2-methyl-pyrazino[1′,2′:1,6]pyrido[3,4-b]indole-1,4-dione]
